For data set [1], the system named is AZT-sensitive HIV-1 (strain: HTLVIIIB). Kind of data set: Inhibition of HIV-1 HTLVIIIB in PBMC, RT activity assays (Example 14). The data set is classed as cell-based. The settings on record: Human immunodeficiency virus 1, PBMC.
Description: The compounds, as well as AZT, were tested for their ability to inhibit HIV replication in peripheral blood mononuclear cells using previously described procedures (Zarling et. al., 1990 Nature 347:92; Erice et. al., 1993 Antimicrob. Agents Chemother. 37:835; Uckun et. al., 1998 Antimicrob. Agents Chemother. 42:383). […] Percent viral inhibition was calculated by comparing the RT activity values from the test substance-treated infected cells with RT values from untreated infected cells (i.e., virus controls).
Data set [2] has as its system peripheral blood mononuclear cells. Kind of data set: Microculture tetrazolium assay (MTA) cytotoxicity in PBMNC. The settings on record: viability of PBMC. How it is done:
Percent inhibition of viral replication was calculated by comparing the p24 and RT activity values from the test substance-treated infected cells with those from untreated infected cells. In parallel, the cytotoxicity of the compounds was examined using a microculture tetrazolium assay (MTA) of cell proliferation, as described.in the Zarling, Enrice, and Uckun articles Supra).
Cellular Assays of Anti-HIV Activity and Cytotoxicity. […] Percent viral inhibition was calculated by comparing the RT activity values from the test substance-treated infected cells with RT values from untreated infected cells (i.e., virus controls).
Antiviral susceptibility assays. Phenotypic drug susceptibility studies of HIV-1 isolates and strains were performed by measuring the production of the p24 gag protein in peripheral blood mononuclear cells (PBMC) from seronegative healthy volunteers in the presence of increasing concentrations of the anti-HIV agent using the quantitative Coulter HIV-1 p24 antigen ezyme immunoassay (EIA) and HIV-1 p24 Antigen Kinetic Standard (Beckman Coulter), as previously described (Uckun, 1998, Antimicrobial Agents and Chemotherapy 37(4): 835-38). Informed consent was obtained from the blood donors according to DHHS guidelines using consent forms approved by the Institutional Review Board. In brief, PBMC were cultured for 72 h in RPMI 1640 medium (Gibco) supplemented with 20% (vol/vol) heat-inactivated fetal bovine serum, 5% human interleukin-2 (Zeptometrix), 2 mM L-glutamine, 25 mM HEPES, 2 g/L NaHCO3, 100 U/ml penicillin/streptomycin (Gibco), 50 μg/ml gentamicin (Gibco), and 5 μg/ml phytohemagglutinin-P (PHA-P) (Sigma) for 24-72 hours prior to exposure to HIV at a multiplicity of infection of 0.001-0.1 during a 1-h adsorbtion period at 37±1° C. in a humidified 5-7% CO2 atmosphere. Subsequently, cells were cultured in 96-well microtiter plates (100 μl/well; 2×10^6 cells/ml, triplicate wells) in the presence of the anti-HIV agents at 6-7 different concentrations ranging from 0.0001 μM to 100 μM, and 25 μL aliquots of culture supernatants were removed from the wells on day 6 after infection for p24 EIA, as previously described (Uckun, 1998, Antimicrobial Agents and Chemotherapy, 37(4):835-38). Controls included uninfected and untreated cells (background control) and infected but untreated (virus control) cells. The p24 EIA utilizes a murine monoclonal antibody to HIV core protein used to coat microwell strips to which the antigen present in the test culture supernatant samples binds. Percent inhibition of viral replication was calculated by comparing the p24 values from the test substance-treated infected cells with p24 values from untreated infected cells (i.e., virus controls). The IC50 values were determined using the Statview statistics program (SAS Institute, Inc.). In parallel, the effects of various treatments on cell viability were also examined as previously described (Uckun, 1998, Antimicrobial Agents and Chemotherapy, 42:383-388). In brief, noninfected PBMC were treated with each compound for 5 days under identical experimental conditions. A microculture tetrazolium assay (MTA) was performed to quantitate cellular proliferation (Uckun, 1998, Antimicrobial Agents and Chemotherapy, 42:383-388).
In parallel, the cytotoxicity of the compounds was examined using a microculture tetrazolium assay (MTA) of cell proliferation, as described (in the Zarling, Enrice, and Uckun articles Supra).

The conditions of data set [3]: cited from earlier work.
The conditions of data set [4]: twice daily hard gelatin capsules 25-100 mg/kg; cumulative dose levels as high as […]; cited from earlier work.
The nature of data set [5]: Stability in plasma, whole blood, gastric fluid and intestinal fluid. Format: in vitro ADME. How it is done:
Ala-d4T-MP is stable both in plasma and in whole blood. […] This hypothesis is consistent with the formation of a significant amount of d4T after incubation of d4T-5′-[p-bromophenyl methoxyalaninyl phosphate] with a liver homogenate.
Orally administered d4T-5′-[p-bromophenyl methoxyalaninyl phosphate] also yielded Ala-d4T-MP and d4T as the major metabolites. […] This metabolite can be absorbed in the intestine and then further metabolized to yield d4T in the blood. The tmax and t1/2 values for d4T in mice were longer when derived from orally administered d4T-5′-[p-bromophenyl methoxyalaninyl phosphate] (42.4 minutes and 99.0 minutes, respectively) than from orally administered d4T (5 minutes and 18 minutes, respectively). The tmax value is higher but the t1/2 value is lower for orally administered d4T-5′-[p-bromophenyl methoxyalaninyl phosphate] compared to intravenously administered d4T-5′-[p-bromophenyl methoxyalaninyl phosphate]. […] However, the bioavailability of d4T metabolized from d4T-5′-[p-bromophenyl methoxyalaninyl phosphate] (48%) was lower than that of orally administered d4T (98%).

For the next data set, the system named is human T-cell line MT2. Kind of data set: Cytotoxicity in MT2 cells. Format: cell-based. The settings on record: even at a 100 μM concentration. An excerpt:
Dozens of mutant strains have been characterized as resistant to NNRTI compounds, including L1001, K103N, V106A, E138K, Y181C and Y188H/L. In particular, the Y181 C and K103N mutants may be the most difficult to treat, because they are resistant to most of the NNRTIs compounds that have been examined. […] These clinical HIV-1 isolates also harbor additional RT gene mutations conferring NRTI-resistance and display a zidovudine-resistant phenotype (see Table 11 and Table 12).

Here are results for two molecules from patent publication US20070015733A1, “Aryl Phosphate Derivatives of d4T having Activity Against Resistant HIV Strains” (Parker Hughes Institute, priority 1998, published 2007).

A value given as a limit tells only on which side of the number the result lay.

Usually IC50 stands for the point on the concentration scale where inhibition reaches its midpoint. Regarding `Cc1cn([C@H]2C[C@H](N=[N+]=[N-])[C@@H](CO)O2)c(=O)[nH]c1=O` [AZT, 3′-azido-3′-deoxythymidine], the IC50 in data set [1] (Table 15, preliminary, first human source of PBMC) is 7 nM; in data set [1] (Table 16, AZT values in nM per footnote) it was 81.7 nM; in data set [1] (Table 17, later analysis from a larger sample pool), 4 ± 1 nM.

As a reminder, the CC50 is the concentration that lowers cell viability or growth by half. Consider `COC(=O)C(C)NP(=O)(OC[C@@H]1C=C[C@H](n2cc(C)c(=O)[nH]c2=O)O1)Oc1ccc(Br)cc1` (some centres unmarked) [Compound 1c, d4T-5′-[p-bromo-phenylmethoxyalaninyl phosphate]], for which the CC50 in data set [2] is > 100000 nM. In addition, the “toxicity on daily administration” value in data set [3] (intraperitoneally or orally for up to 8 consecutive weeks, cumulative dose levels as high as 6.4 g/kg) was “not associated with any detectable toxicity”. Also, in data set [3] (single intraperitoneal or oral bolus dose levels as high as 500 mg/kg), the “acute or subacute toxicity” value was “without any detectable acute or subacute toxicity”. The “tolerability of four-week treatment course” value in data set [4] is on record as “very well tolerated”. In data set [5] (gastric fluid), the “stability in gastric fluid” value is recorded as “stable in gastric fluid”. Also, in data set [5] (intestinal fluid, forms Ala-d4T-MP), the “stability in intestinal fluid” value was “decomposes readily in intestinal fluid”. Also, the “stability in plasma and whole blood” value in data set [5] (plasma or whole blood) is listed as “readily metabolizes”. Moreover, the “cytotoxicity in MT2 cells” value in the data set with human T-cell line MT2 is listed as “without any evidence of cytotoxicity”.
